Source: ChEMBL document CHEMBL3046856, “Synthesis and fungicidal activity of novel pimprinine analogues” (2012)

Assays:
Assay type in all cases: functional
[1] = system: Alternaria solani; test: Fungicidal activity against Alternaria solani grown on compound supplemented artificial media assessed as control of disease or pathogen at 20 ppm measured after 5 to 14 days by artificial media assay
[2] = system: Pythium dissimile; test: Fungicidal activity against Pythium dissimile grown on compound supplemented artificial media assessed as control of disease or pathogen at 20 ppm measured after 5 to 14 days by artificial media assay
[3] = Fungicidal activity against Zymoseptoria tritici infected on compound pre-treated wheat leaf pieces assessed as control of disease or pathogen at 100 ppm measured after 5 to 14 days by leaf-piece assay
[4] = system: Uromyces viciae-fabae; test: Fungicidal activity against Uromyces viciae-fabae infected compound pre-treated bean leaf pieces assessed as control of disease or pathogen at 100 ppm measured after 5 to 14 days by leaf-piece assay
[5] = system: Alternaria solani; test: Fungicidal activity against Alternaria solani grown on compound supplemented artificial media assessed as control of disease or pathogen at 2 ppm measured after 5 to 14 days by artificial media assay
[6] = system: Pythium dissimile; test: Fungicidal activity against Pythium dissimile grown on compound supplemented artificial media assessed as control of disease or pathogen at 2 ppm measured after 5 to 14 days by artificial media assay
[7] = system: Botrytis cinerea; test: Fungicidal activity against Botryotinia fuckeliana grown on compound supplemented artificial media assessed as control of disease or pathogen at 2 ppm measured after 5 to 14 days by artificial media assay
[8] = system: Botrytis cinerea; test: Fungicidal activity against Botryotinia fuckeliana grown on compound supplemented artificial media assessed as control of disease or pathogen at 20 ppm measured after 5 to 14 days by artificial media assay

Row | Structure (SMILES) | Activity [1] [%] | Activity [2] [%] | Activity [3] [%] | Activity [4] [%] | Activity [5] [%] | Activity [6] [%] | Activity [7] [%] | Activity [8] [%]
1 | COC(=O)n1cc(-c2ocnc2Br)c2ccccc21 | 0 | 0 | 0 | 0 | 0 | 0 |  | 
2 | COCC(=O)n1cc(-c2ocnc2Br)c2ccccc21 | 99 | 77 | 0 | 77 | 0 | 0 | 0 | 99
3 | Brc1ncoc1-c1cn(CC2CC2)c2ccccc12 | 0 | 55 | 0 | 0 | 0 | 0 | 0 | 0
4 | c1ccc2c(-c3cnco3)c[nH]c2c1 | 77 | 99 | 0 | 0 | 0 | 0 | 0 | 0
5 | Brc1ncoc1-c1c[nH]c2ccccc12 | 99 | 99 | 0 | 77 | 0 | 0 | 0 | 99
6 | Cn1cc(-c2ocnc2Cl)c2ccccc21 | 0 | 0 | 0 | 77 | 0 | 0 | 0 | 0
7 | CCn1cc(-c2ocnc2Cl)c2ccccc21 | 0 | 55 | 0 | 99 | 0 | 0 | 0 | 0
8 | C=CCn1cc(-c2ocnc2Cl)c2ccccc21 | 0 | 0 | 0 | 99 | 0 | 0 | 0 | 0
9 | CC(=O)n1cc(-c2ocnc2Cl)c2ccccc21 | 0 | 0 | 0 | 0 | 0 | 0 | 0 | 0
10 | CCC(=O)n1cc(-c2ocnc2Cl)c2ccccc21 | 0 | 0 | 0 | 0 | 0 | 0 | 0 | 0
11 | CCS(=O)(=O)n1cc(-c2ocnc2Cl)c2ccccc21 | 0 | 27 | 0 | 55 | 0 | 0 | 0 | 0
12 | O=C(CCl)n1cc(-c2ocnc2Cl)c2ccccc21 | 55 | 99 | 0 | 49 | 0 | 0 | 0 | 99
13 | O=C(C(Cl)Cl)n1cc(-c2ocnc2Cl)c2ccccc21 | 99 | 99 | 0 | 0 | 0 | 0 | 0 | 99
14 | O=C(n1cc(-c2ocnc2Cl)c2ccccc21)C(Cl)(Cl)Cl | 99 | 99 | 0 | 55 | 0 | 0 | 0 | 99
15 | CC(Cl)C(=O)n1cc(-c2ocnc2Cl)c2ccccc21 (stereo not given) | 55 | 0 | 0 | 55 | 0 | 0 | 0 | 0
16 | COC(=O)n1cc(-c2ocnc2Cl)c2ccccc21 | 0 | 0 | 0 | 0 | 0 | 0 |  | 
17 | COCC(=O)n1cc(-c2ocnc2Cl)c2ccccc21 | 99 | 55 | 0 | 55 | 0 | 0 | 0 | 77

Row | Structure (SMILES) | Activity [1] [%] | Activity [2] [%] | Activity [3] [%] | Activity [4] [%] | Activity [5] [%] | Activity [6] [%] | Activity [7] [%] | Activity [8] [%]
18 | CCOC(=O)Cn1cc(-c2ocnc2Cl)c2ccccc21 | 0 | 0 | 0 | 0 | 0 | 0 | 0 | 0
19 | CCOC(=O)C(=O)n1cc(-c2ocnc2Cl)c2ccccc21 | 99 | 77 | 33 | 0 | 0 | 0 | 0 | 99
20 | Fc1ccc(Cn2cc(-c3ocnc3Cl)c3ccccc32)c(F)c1 | 0 | 0 | 0 | 27 | 0 | 0 | 0 | 0
21 | Clc1ncoc1-c1cn(CC2CO2)c2ccccc12 (stereo not given) | 0 | 0 | 0 | 77 | 0 | 0 | 0 | 0
22 | Clc1ncoc1-c1cn(CC2CC2)c2ccccc12 | 0 | 99 | 33 | 55 | 0 | 0 | 0 | 0
23 | Cn1cc(-c2ocnc2Br)c2ccccc21 | 0 | 0 | 0 | 55 | 0 | 0 | 0 | 0
24 | CCn1cc(-c2ocnc2Br)c2ccccc21 | 55 | 55 | 0 | 99 | 0 | 49 | 0 | 0
25 | C=CCn1cc(-c2ocnc2Br)c2ccccc21 | 0 | 0 | 18 | 49 | 0 | 0 | 0 | 27
26 | ClC(Cl)=CCn1cc(-c2ocnc2Br)c2ccccc21 | 0 | 0 | 0 | 0 | 0 | 0 | 0 | 0
27 | CC(=O)n1cc(-c2ocnc2Br)c2ccccc21 | 0 | 0 | 0 | 0 | 0 | 0 | 0 | 0
28 | CCC(=O)n1cc(-c2ocnc2Br)c2ccccc21 | 0 | 0 | 0 | 0 | 0 | 0 | 0 | 0
29 | CCS(=O)(=O)n1cc(-c2ocnc2Br)c2ccccc21 | 0 | 0 | 0 | 0 | 0 | 0 | 0 | 0
30 | O=C(CCl)n1cc(-c2ocnc2Br)c2ccccc21 | 99 | 99 | 18 | 49 | 27 | 0 | 0 | 99
31 | O=C(C(Cl)Cl)n1cc(-c2ocnc2Br)c2ccccc21 | 99 | 77 | 0 | 27 | 0 | 0 | 0 | 99
32 | CC(Cl)C(=O)n1cc(-c2ocnc2Br)c2ccccc21 (stereo not given) | 55 | 0 | 0 | 27 | 0 | 0 | 0 | 0
33 | Clc1ncoc1-c1c[nH]c2ccccc12 [Streptochlorin] | 99 | 99 | 36 | 55 | 99 | 0 | 0 | 99
